Source: paper PMC9731865, “Gambogic acid and juglone inhibit RNase P through distinct mechanisms” (The Journal of Biological Chemistry, 2022)
Where two headings read alike, the source gives them in different places.

Target: T1, A. thaliana PRORP1 (Arabidopsis thaliana, UniProt Q66GI4)
T1 construct: made in house
T1 sequence (Q66GI4 77-572): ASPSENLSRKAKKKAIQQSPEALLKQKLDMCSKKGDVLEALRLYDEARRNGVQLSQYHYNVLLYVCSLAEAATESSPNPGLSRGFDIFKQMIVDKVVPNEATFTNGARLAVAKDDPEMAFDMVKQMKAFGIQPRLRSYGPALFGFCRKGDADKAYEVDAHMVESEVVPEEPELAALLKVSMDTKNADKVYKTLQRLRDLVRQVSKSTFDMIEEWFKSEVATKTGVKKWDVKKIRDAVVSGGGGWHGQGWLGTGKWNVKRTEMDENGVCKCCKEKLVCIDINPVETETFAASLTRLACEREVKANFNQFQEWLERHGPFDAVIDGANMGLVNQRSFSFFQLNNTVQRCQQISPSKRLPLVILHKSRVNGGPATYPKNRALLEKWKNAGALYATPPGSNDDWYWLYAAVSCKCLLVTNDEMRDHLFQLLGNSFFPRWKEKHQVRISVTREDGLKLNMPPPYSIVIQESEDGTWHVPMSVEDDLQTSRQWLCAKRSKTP
Assay: FP cleavage assay, PRORP1 dose response
Format: biochemical
Conditions: for activity at 6.25 µM: read-out: PRORP1 Activity (%)
Description: Compounds gambogic acid (A) and juglone (B) were incubated with enzyme at double the reaction concentration for 30 min prior to the addition of an equal volume of substrate to initiate the reaction. PRORP1 reactions (shown in green) were performed with 0.3 nM PRORP1 and 800 nM pre-tRNA containing 40 nM Fl-pre-tRNA at 25 °C in 30 mM MOPS pH 7.8, 5 mM MgCl2, 100 mM NaCl, 1 mM TCEP, 500 nM (12 μg/ml) yeast tRNA, 5 mM spermidine, 6.65 μg/ml BSA, and 0.01% NP-40. MRPP1/2/3 reactions (shown in red) were performed using 50 nM MRPP3, 500 nM MRPP1/2, 500 nM pre-tRNA containing 40 nM Fl-pre-tRNA at 37 °C in 50 mM MOPS (pH 7.8), 1 mM TCEP, 4.5 mM MgCl2, and 100 mM NaCl. B. subtilis RNase P reactions (shown in blue) were performed using 20 nM RNase P and 500 nM pre-tRNA containing 40 nM Fl-pre-tRNA at 37 °C in 50 mM Tris, pH 7.2, 5 mM MgCl2, 100 mM KCl, 500 nM (12 μg/ml) yeast tRNA, 20 mM dithiothreitol (DTT), 10 mM spermidine, and 0.01% NP-40. Equation 1 was fit to each dataset.
The activity of PRORP1 catalyzed pre-tRNA cleavage was measured by monitoring the fluorescence anisotropy (FA) signal (λex = 485 nm and λem = 535 nm) over time at 25 °C in buffer conditions optimized for a high-throughput format, 30 mM MOPS pH 7.8, 5 mM MgCl2, 100 mM NaCl, 1 mM TCEP, 500 nM (12 μg/ml) yeast tRNA, 5 mM spermidine, 6.65 μg/ml BSA, and 0.01% NP-40. Yeast tRNA^mix (Roche) was used to reduce the number of compounds that inhibit PRORP1 activity by targeting tRNA. Prior to each reaction, pre-tRNA was heated for 3 min at 95 °C to unfold the RNA and refolded in the reaction buffer at room temperature (25 °C) for 30 min. Reactions were performed in black, 96-well plates (Corning Incorporation, #3686) using a TECAN plate-reader (Infinite F500, G-factor = 1.05) at 25 °C, and the FA values recorded. Reactions were initiated with the addition of substrate to enzyme. Experiments were done in the presence of excess substrate. The concentration of enzyme was 0.3 to 5 nM, the concentration of labeled substrate (Fl-pre-tRNA) was 40 nM, and the concentration of pre-tRNA was 120 to 4000 nM. The concentration of Fl-pre-tRNA was held constant in all reactions.
The dose response was measured using the FP assay as described above with varying concentrations of compound. Compounds were incubated with PRORP1 at twice the reaction concentration for 30 min prior to the addition of equal volumes of substrate to initiate the reaction. Experiments were done under multiple turnover conditions (same buffer conditions as the FP assay). […] PRORP1 activity was determined as a function of inhibitor concentration, and Equation 1 was fit to the data to determine the IC50 value. The standard error of the mean (SEM) is reported from the fit.(1) Activity(%)=100/1+([I]/IC50)^n

[1] = 6.25 μM of inhibitor, FP cleavage assay

SMILES | activity at 6.25 µM [1] | other results
CC(=O)O[C@@H]1C[C@@]2(C)[C@H](c3ccoc3)C[C@H]3O[C@]32[C@]2(C)C(=O)C(O)=C3C(C)(C)C(=O)C=C[C@]3(C)[C@@H]12 [anthothecol] | 15.5% | –
O=C(O)C1=CC(=C(c2ccc(O)c(C(=O)O)c2)c2ccc(O)c(C(=O)O)c2)C=CC1=O [aurintricarboxylic acid] | 46.5% | –
O=C1C(Cl)=C(Cl)C(=O)C(Cl)=C1Cl [chloranil] | 40.2% | –
Cc1cc(-c2ccc(/N=N/c3ccc4c(S(=O)(=O)O)cc(S(=O)(=O)O)c(N)c4c3O)c(C)c2)ccc1/N=N/c1ccc2c(S(=O)(=O)O)cc(S(=O)(=O)O)c(N)c2c1O [evans blue] | 20.2% | –
CN(C)c1ccc(C(=C2C=CC(=[N+](C)C)C=C2)c2ccc(N(C)C)cc2)cc1 [gentian violet] | 0% | –
COC(=O)/C(C)=C\C[C@@]12OC(C)(C)[C@@H]3C[C@@H](C=C4C(=O)c5c(O)c6c(c(CC=C(C)C)c5O[C@]431)O[C@](C)(CCC=C(C)C)C=C6)C2=O [methyl gambogate] | – | activity at 6.25 µM: 34.8%
CC(=O)[O][Hg][c]1ccccc1 [phenylmercuric acetate] | – | PRORP1 Activity (%) [1]: 32.2%
CC1=CC(=O)c2c(O)cccc2C1=O [plumbagin] | 2.6% | –
